Measurements from ChEMBL document CHEMBL5321204, “Hybrids of delavirdine and piperdin-4-yl-aminopyrimidines (DPAPYs) as potent HIV-1 NNRTIs: Design, synthesis and biological activities” (Eur J Med Chem, 2023).

What was measured:
[1] = system: Human immunodeficiency virus 1; assay: Antiviral activity against HIV-1 RES056 mutant infected in human MT4 cells assessed as protection against virus induced cytopathic effect and measured after 5 days by MTT spectrophotometric assay; assay type: functional, organism-based; details: Human immunodeficiency virus 1, MT4, 120 h
[2] = system: Human immunodeficiency virus 1; assay: Antiviral activity against HIV-1 Y188L mutant infected in human MT4 cells assessed as protection against virus induced cytopathic effect and measured after 5 days by MTT spectrophotometric assay; assay type: functional, organism-based; details: Human immunodeficiency virus 1, MT4, 120 h
[3] = system: Human immunodeficiency virus 1; assay: Antiviral activity against HIV-1 E138K mutant infected in human MT4 cells assessed as protection against virus induced cytopathic effect and measured after 5 days by MTT spectrophotometric assay; assay type: functional, organism-based; details: Human immunodeficiency virus 1, MT4, 120 h
[4] = in vitro; details: human, MT4 cells
Description: Selectivity index, ratio of CC50 for cytotoxicity against human MT4 cells assessed as reduction in cell viability to EC50 for antiviral activity against HIV-1 IIIb infected in human MT4 cells assessed as reduction in virus induced cytopathic effect

[5] = system: Human immunodeficiency virus 1; assay: Antiviral activity against HIV-1 F227L-V106A mutant infected in human MT4 cells assessed as protection against virus induced cytopathic effect and measured after 5 days by MTT spectrophotometric assay; assay type: functional, organism-based; details: Human immunodeficiency virus 1, MT4, 120 h
[6] = system: Human immunodeficiency virus 2; assay: Antiviral activity against HIV-2 ROD infected in human MT4 cells assessed as protection against virus induced cytopathic effect and measured after 5 days by MTT spectrophotometric assay; assay type: functional, organism-based; details: Human immunodeficiency virus 2, ROD, MT4, 120 h
[7] = system: Human immunodeficiency virus 1; assay: Antiviral activity against HIV-1 K103 N mutant infected in human MT4 cells assessed as protection against virus induced cytopathic effect and measured after 5 days by MTT spectrophotometric assay; assay type: functional, organism-based; details: Human immunodeficiency virus 1, MT4, 120 h
[8] = molecular target: Human immunodeficiency virus type 1 reverse transcriptase (Human immunodeficiency virus 1, UniProt Q72547); assay: Inhibition of HIV-1 reverse transcriptase using [2,8-3H]dGTP as substrate by […] assay
[9] = Cytotoxicity against human MT4 cells assessed as reduction in cell viability incubated for 5 days by MTT spectrophotometric assay; assay type: toxicity, cell-based; details: time 5 day
[10] = system: Human immunodeficiency virus 1; assay: Antiviral activity against HIV-1 Y181C mutant infected in human MT4 cells assessed as protection against virus induced cytopathic effect and measured after 5 days by MTT spectrophotometric assay; assay type: functional, organism-based; details: Human immunodeficiency virus 1, MT4, 120 h
[11] = system: Human immunodeficiency virus 1; assay: Antiviral activity against HIV-1 L100I mutant infected in human MT4 cells assessed as protection against virus induced cytopathic effect and measured after 5 days by MTT spectrophotometric assay; assay type: functional, organism-based; details: Human immunodeficiency virus 1, MT4, 120 h
[12] = system: Human immunodeficiency virus 1; assay: microbe, parasite or virus in culture; details: Human immunodeficiency virus 1, IIIb, MT4, 120 h
Description: Antiviral activity against HIV-1 IIIb infected in human MT4 cells assessed as protection against virus induced cytopathic effect and measured after 5 days by MTT spectrophotometric assay

| Structure (SMILES) | EC50 [1] | EC50 [2] | EC50 [3] | selectivity ratio [4] | EC50 [5] | EC50 [6] | EC50 [7] | IC50 [8] | CC50 at 120 h [9] | EC50 [10] | EC50 [11] | EC50 [12] |
| --- | --- | --- | --- | --- | --- | --- | --- | --- | --- | --- | --- | --- |
| Cc1cc(C#N)cc(C)c1Oc1ccnc(NC2CCN(C(=O)c3cc4cc(NS(C)(=O)=O)ccc4[nH]3)CC2)n1 | > 25 µM | 3.8 µM | 0.21 µM | 686 | 3.6 µM | > 25 µM | 0.54 µM | 0.13 µM | 25 µM | 0.73 µM | 1.8 µM | 0.036 µM |
| CS(=O)(=O)Nc1ccc2[nH]c(C(=O)N3CCC(Nc4nccc(Oc5ccccc5Br)n4)CC3)cc2c1 | > 17 µM | 7.1 µM | 0.79 µM | 60 | 6.5 µM | > 17 µM | 3.8 µM | 1.4 µM | 17 µM | 3.7 µM | 6.8 µM | 0.27 µM |
| Cc1cc(C)c(Oc2ccnc(NC3CCN(C(=O)c4cc5cc(NS(C)(=O)=O)ccc5[nH]4)CC3)n2)c(C)c1 | > 19 µM | 0.75 µM | 0.033 µM | 2150 | 3.06 µM | > 19 µM | 0.12 µM | 0.11 µM | 19 µM | 0.36 µM | 1.1 µM | 0.009 µM |
| CS(=O)(=O)Nc1ccc2[nH]c(C(=O)N3CCC(Nc4nccc(Oc5ccc(Cl)cc5)n4)CC3)cc2c1 | > 15 µM | > 15 µM | 4.5 µM | 20 | > 15 µM | > 15 µM | 8.4 µM | 1.1 µM | 15 µM | > 15 µM | 8.2 µM | 0.74 µM |
| Cc1cc(Oc2ccnc(NC3CCN(C(=O)c4cc5cc(NS(C)(=O)=O)ccc5[nH]4)CC3)n2)cc(C)c1Cl | > 5.3 µM | > 5.3 µM | > 5.3 µM | 4 | > 5.3 µM | > 5.3 µM | > 5.3 µM | 3 µM | 5.3 µM | > 5.3 µM | > 5.3 µM | 1.3 µM |
| Cc1cccc(C)c1Oc1ccnc(NC2CCN(C(=O)c3cc4cc(NS(C)(=O)=O)ccc4[nH]3)CC2)n1 | > 21 µM | 0.67 µM | 0.08 µM | 678 | 2.7 µM | > 21 µM | 0.52 µM | 12 µM | 21 µM | 0.84 µM | 3.3 µM | 0.032 µM |
| CS(=O)(=O)Nc1ccc2[nH]c(C(=O)N3CCC(Nc4nccc(Oc5ccc(Br)cc5)n4)CC3)cc2c1 | > 9.1 µM | > 9.1 µM | 6.7 µM | 10 | > 9.1 µM | > 9.1 µM | 8.2 µM | 2.2 µM | 9.1 µM | > 9.1 µM | 7.1 µM | 0.87 µM |
| CS(=O)(=O)Nc1ccc2[nH]c(C(=O)N3CCC(Nc4nccc(Oc5cccc(C(F)(F)F)c5)n4)CC3)cc2c1 | > 16 µM | > 16 µM | 4.2 µM | 16 | > 16 µM | > 16 µM | > 16 µM | 1.8 µM | 16 µM | > 16 µM | > 16 µM | 1 µM |
| CS(=O)(=O)Nc1ccc2[nH]c(C(=O)N3CCC(Nc4nccc(Oc5ccc(C#N)cc5)n4)CC3)cc2c1 | > 192 µM | > 192 µM | 7.3 µM | 62 | > 192 µM | > 192 µM | > 192 µM | 1.1 µM | 192 µM | > 192 µM | > 192 µM | 3.1 µM |
| Cc1ccccc1Oc1ccnc(NC2CCN(C(=O)c3cc4cc(NS(C)(=O)=O)ccc4[nH]3)CC2)n1 | > 13 µM | > 13 µM | 1 µM | 41 | > 13 µM | > 13 µM | 8.7 µM | 8.6 µM | 13 µM | 9 µM | > 13 µM | 0.33 µM |
| CS(=O)(=O)Nc1ccc2[nH]c(C(=O)N3CCC(Nc4nccc(Oc5cccc(F)c5)n4)CC3)cc2c1 | > 15 µM | > 15 µM | 7.3 µM | 3 | > 15 µM | > 15 µM | > 15 µM | 4.2 µM | 15 µM | > 15 µM | > 15 µM | 5.7 µM |
| CS(=O)(=O)Nc1ccc2[nH]c(C(=O)N3CCC(Nc4nccc(Oc5cccc(Br)c5)n4)CC3)cc2c1 | > 14 µM | > 14 µM | 3.5 µM | 21 | 8.1 µM | > 14 µM | 7.6 µM | 3.4 µM | 14 µM | 8.1 µM | 7.2 µM | 0.67 µM |
| CS(=O)(=O)Nc1ccc2[nH]c(C(=O)N3CCC(Nc4nccc(Oc5ccc(Br)cc5F)n4)CC3)cc2c1 | > 80 µM | > 80 µM | 3 µM | 84 | > 80 µM | > 80 µM | 23 µM | 0.11 µM | 80 µM | 29 µM | 32 µM | 0.94 µM |
| CS(=O)(=O)Nc1ccc2[nH]c(C(=O)N3CCC(Nc4nccc(Oc5cccc(Cl)c5)n4)CC3)cc2c1 | > 14 µM | 9.2 µM | 5.5 µM | 20 | 8.8 µM | > 14 µM | 8.2 µM | 0.34 µM | 14 µM | 9 µM | 8.1 µM | 0.7 µM |
| CS(=O)(=O)Nc1ccc2[nH]c(C(=O)N3CCC(Nc4nccc(Oc5ccc(C(F)(F)F)cc5)n4)CC3)cc2c1 | > 18 µM | > 18 µM | 5.7 µM | 10 | > 18 µM | > 18 µM | > 18 µM | 1.3 µM | 18 µM | > 18 µM | > 18 µM | 1.8 µM |
| Cc1cccc(Oc2ccnc(NC3CCN(C(=O)c4cc5cc(NS(C)(=O)=O)ccc5[nH]4)CC3)n2)c1 | > 27 µM | > 27 µM | > 27 µM | 5 | > 27 µM | > 27 µM | > 27 µM | 1.2 µM | 27 µM | > 27 µM | > 27 µM | 5.5 µM |
| CS(=O)(=O)Nc1ccc2[nH]c(C(=O)N3CCC(Nc4nccc(Oc5cccc(C#N)c5)n4)CC3)cc2c1 | > 29 µM | > 29 µM | 8.7 µM | 8 | > 28 µM | > 29 µM | > 29 µM | 0.6 µM | 29 µM | > 29 µM | > 29 µM | 3.7 µM |
| CS(=O)(=O)Nc1ccc2[nH]c(C(=O)N3CCC(Nc4nccc(Oc5ccccc5Cl)n4)CC3)cc2c1 | > 15 µM | 7.8 µM | 0.98 µM | 35 | 8.3 µM | > 15 µM | 6.4 µM | 1.6 µM | 15 µM | 5.9 µM | 7.6 µM | 0.43 µM |
| O=C1Nc2ccc(Cl)cc2[C@@](C#CC2CC2)(C(F)(F)F)O1 [EFAVIRENZ] | 0.57 µM | 0.32 µM | 0.007 µM | – | 0.41 µM | – | 0.14 µM | – | > 6.3 µM | – | 0.067 µM | – |
| Cc1cc(C#N)cc(C)c1Oc1nc(Nc2ccc(C#N)cc2)nc(N)c1Br [ETRAVIRINE] | 0.1 µM | 0.03 µM | 0.017 µM | > 1430 | 0.03 µM | – | 0.004 µM | – | > 4.6 µM | – | 0.012 µM | – |
| Nc1ccn([C@@H]2CS[C@H](CO)O2)c(=O)n1 [LAMIVUDINE] | 10 µM | 4.1 µM | 7.4 µM | > 11 | 8.2 µM | – | 4.7 µM | – | > 87 µM | 3.5 µM | 1.7 µM | 8.3 µM |
| Cc1ccnc2c1NC(=O)c1cccnc1N2C1CC1 [NEVIRAPINE] | > 15 µM | > 15 µM | 0.31 µM | – | > 15 µM | – | 7.4 µM | – | > 15 µM | – | 2.2 µM | 0.19 µM |
| Cc1cn([C@H]2C[C@H](N=[N+]=[N-])[C@@H](CO)O2)c(=O)[nH]c1=O [ZIDOVUDINE] | 0.035 µM | 0.023 µM | – | > 290 | 0.026 µM | 0.021 µM | 0.032 µM | – | > 7.1 µM | 0.019 µM | 0.009 µM | 0.024 µM |
